The text below walks through data of patent US9573901B2, “Crystal form of chidamide, preparation method and use thereof” (SHENZHEN CHIPSCREEN BIOSCIENCES, LTD., priority 2012, dated 2017).

One data set is described as follows: Solubility. The class given is physicochemical.
Data set [1] is described as follows: Stability test at high temperature, high humidity and strong light exposure. The class given is physicochemical. The note with it: high temperature (60° C.), high humidity (90%±5%) and strong light exposure (4500 Lx±500 Lx). The protocol: The stability of the chidamide crystal form A and the chidamide crystal form B described herein was tested at high temperature (60° C.), high humidity (90%±5%) and strong light exposure (4500 Lx±500 Lx). […] Both the chidamide crystal form A and the chidamide crystal form B are suitable for the manufacturing of drug products and long-term storage. The chidamide crystal form A and the chidamide crystal form B described herein have excellent performance in terms of oral absorption and inhibition of cell differentiation and proliferation. Additionally, both crystal forms have low toxicity and favorable storage and treatment stability, and can be used in the preparation of a medicament for treating cell differentiation and proliferation-related diseases. Thus, the present invention provides the use of the chidamide crystal form A and the chidamide crystal form B in the preparation of a medicament for treating cell differentiation and proliferation-related diseases.

On to `Nc1cc(F)ccc1NC(=O)c1ccc(CNC(=O)/C=C/c2cccnc2)cc1` [chidamide crystal form A, N-(2-amino-4-fluorophenyl)-4-(N-(3-pyridylacryloyl)aminomethyl)benzamide], for which the solubility entry in “Solubility” was “favorable performance in terms of solubility”. In data set [1], the “content and total impurity amount after stability test” value was “no significant change”; the “crystal form after stability test” value is “keep the original crystal form”.
